From patent publication US20040254162A1, “Oxazolidinone derivatives as antimicrobials” (priority 2001, published 2004)
In brackets after ≈: the same amount, converted by molar mass. Several values for one entry are separate records, joined by “and”; a condition that tells them apart may be missing. Equal entries are not always repeated. Where two headings read alike, the source gives them in different places.

Legend:
[1] = tested on: Prevotella melaninogenica; experiment: Agar dilution MIC, anaerobes; format: cell-based; conditions: Prevotella melaninogenica, read-out: MIC Prevotella melaninogenica
S. pneumoniae = experiment: Summary of in vitro activity (MIC); conditions: Streptococcus pneumoniae
MRSA 33 = experiment: MIC, agar incorporation method
MRSA 562 [2] = experiment: In vivo activity against MRSA 562 (ED50); parameters: species or system Methicillin Resistant Staphylococcus aureus; conditions: IV; MRSA 562 infection
MRSA 15187 = experiment: MIC, agar incorporation method
[3] = tested on: Peptostreptococcus micros; experiment: Agar dilution MIC, anaerobes; format: cell-based; conditions: Parvimonas micra, read-out: MIC Peptostreptococcus micros
Strep. pne. ATCC 6303 = experiment: MIC, agar incorporation method
anaerobic bacteria = experiment: Agar dilution method for anaerobic bacteria, summary; format: cell-based
Fusobacterium nucleatum = experiment: Agar dilution MIC, anaerobes; format: cell-based; conditions: Fusobacterium nucleatum, read-out: MIC Fusobacterium nucleatum
Eubacterium leutum = experiment: Agar dilution MIC, anaerobes; format: cell-based
Clostridium difficile = experiment: Agar dilution MIC, anaerobes; format: cell-based; conditions: for MIC Clostridium difficile: single isolates, anaerobic agar dilution
[4] = tested on: MRSE 879 adherent bacteria; experiment: Sintered glass adherent bacteria model; conditions: MRSE 879, sintered glass adherent bacteria model
Prevotella intermedia = experiment: Agar dilution MIC, anaerobes; format: cell-based
Bacteroides fragilis = experiment: Agar dilution MIC, anaerobes; format: cell-based
Porphyromonas gingivalis = experiment: Agar dilution MIC, anaerobes; format: cell-based
[5] = tested on: Porphyromonas asaccharolytica; experiment: Agar dilution MIC, anaerobes; format: cell-based
[6] = Changes in MIC under different conditions: broth MIC; format: cell-based; conditions: strain not given
P. acnes = experiment: Agar dilution MIC, anaerobes; format: cell-based; conditions: for MIC P. acnes: single isolates, anaerobic agar dilution
Clostridium perfringens = experiment: microbe, parasite or virus in culture; format: cell-based
Fusobacterium varium = experiment: Agar dilution MIC, anaerobes; format: cell-based; conditions: Fusobacterium varium, read-out: MIC Fusobacterium varium
MRSE 879 = experiment: Broth MIC, MRSE 879; format: cell-based
[7] = tested on: Peptostreptococcus tetradius; experiment: Agar dilution MIC, anaerobes; format: cell-based
G +ve bacteria = experiment: Summary of in vitro activity (MIC)
[8] = tested on: Prevotella (Bacteroides) disiens; experiment: Agar dilution MIC, anaerobes; format: cell-based; conditions: read-out: MIC Prevotella (Bacteroides) disiens
Ent. faecalis ATCC 29212 = experiment: MIC, agar incorporation method
S. aureus = experiment: Summary of in vitro activity (MIC); conditions: Staphylococcus aureus
MRSA 562 [9] = experiment: MIC, agar incorporation method; conditions: Staphylococcus aureus, MRSA
Fusobacterium montiferum = experiment: Agar dilution MIC, anaerobes; format: cell-based
S. pneum AB 34 = experiment: MIC, agar incorporation method
[10] = tested on: Peptostreptococcus magnum; experiment: Agar dilution MIC, anaerobes; format: cell-based
E. faecalis = experiment: Summary of in vitro activity (MIC); conditions: Enterococcus faecalis
VRE 6A (Ent. faecium 6A) = experiment: MIC, agar incorporation method
Clostridium camis = experiment: Agar dilution MIC, anaerobes; format: cell-based
Strep. pyog. ATCC 19615 = experiment: MIC, agar incorporation method
Fusobacterium necrogenes = experiment: Agar dilution MIC, anaerobes; format: cell-based
[11] = tested on: Peptostreptococcus prevotii; experiment: Agar dilution MIC, anaerobes; format: cell-based; conditions: Anaerococcus prevotii, read-out: MIC Peptostreptococcus prevotii
Prevotella bivia = experiment: Agar dilution MIC, anaerobes; format: cell-based
[12] = Changes in MIC under different conditions: agar MIC; format: cell-based; conditions: strain not given
[13] = tested on: Peptostreptococcus asaccharolyticus; experiment: Agar dilution MIC, anaerobes; format: cell-based; conditions: single isolates, anaerobic agar dilution
[14] = tested on: MRSA 1029/99 and MRSE 879/247; experiment: Inhibition of biofilm (slime) production; format: cell-based; conditions: trypticase soy broth with 2% glucose, overnight 37° C., safranin OD 544 nm
Experimental: To study the effect of Compound No. 16 on the inhibition of biofilm production, the following study was carried out. […] Bacterial suspensions (in triplicate) were exposed to doubling dilution of antibiotics and incubated overnight at 37° C. with constant shaking (100 rpm). Next day, after aspirating the medium, biofilm was stained with safranin (0.1%) for 1 hour at room temperature, washed with distilled water, tapped dried and stain extracted into 200 μl of 0.2M NaoH and OD measured at 544 nm. Relative inhibition was determined by using the formula: […]

S. aureus ATCC 25923 = experiment: MIC, agar incorporation method; conditions: agar incorporation
[15] = tested on: Mycobacterium tuberculosis
[16] = tested on: Mycobacterium avium intracellulare; experiment: Agar dilution method, mycobacteria; format: cell-based
[17] = single isolates, anaerobic agar dilution
[18] = anaerobes, Wilkins Chalgren agar, 48 hour
[19] = single isolate, anaerobic agar dilution

CN[C@H](CC(C)C)C(=O)N[C@H]1C(=O)N[C@@H](CC(N)=O)C(=O)N[C@H]2C(=O)N[C@H]3C(=O)N[C@H](C(=O)N[C@H](C(=O)O)c4cc(O)cc(O)c4-c4cc3ccc4O)[C@H](O)c3ccc(c(Cl)c3)Oc3cc2cc(c3O[C@@H]2O[C@H](CO)[C@@H](O)[C@H](O)[C@H]2O[C@H]2C[C@](C)(N)[C@H](O)[C@H](C)O2)Oc2ccc(cc2Cl)[C@H]1O [Vancomycin] gave an MIC [1] of over 16 µg/mL, an MIC50 (S. pneumoniae) of 0.5 µg/mL (≈ 0.345 µM) and an MIC90 (S. pneumoniae) of 0.5 µg/mL (≈ 0.345 µM). For the same compound, the MIC (S. pneumoniae; read-out: Geometric Mean of in vitro activity (MIC)) was 0.39 µg/mL (≈ 0.269 µM), the MIC (MRSA 33; Staphylococcus aureus, MRSA, read-out: MIC MRSA 33) was 0.5 µg/mL (≈ 0.345 µM) and the “ED50 (mg/kg body weight)” value (MRSA 562 [2]) was 8.84 (IV) mg/kg body weight. It also gave an MIC (MRSA 15187; Staphylococcus aureus, MRSA, read-out: MIC MRSA 15187) of 0.5 µg/mL (≈ 0.345 µM), an MIC [3] of 1 µg/mL (≈ 0.69 µM) and an MIC (Strep. pne. ATCC 6303; Streptococcus pneumoniae, ATCC6303, read-out: MIC S. pneum 6303) of 0.5 µg/mL (≈ 0.345 µM). The MIC50 (anaerobic bacteria; 48 h) was 32 µg/mL (≈ 22.1 µM), the MIC90 (anaerobic bacteria; 48 h) was 32 µg/mL (≈ 22.1 µM) and the “Geometric Mean” value (anaerobic bacteria; anaerobes) was 9.306 µg/mL. For the same compound, the “MIC Range” value (anaerobic bacteria; anaerobes) was 0.5 to 32 µg/mL, the MIC (Fusobacterium nucleatum) was over 16 µg/mL and the MIC (Eubacterium leutum; Eubacterium, read-out: MIC Eubacterium leutum) was 1 µg/mL (≈ 0.69 µM). The MIC (Clostridium difficile; Clostridioides difficile, read-out: MIC Clostridium difficile, single isolates, anaerobic agar dilution) was 2 µg/mL (≈ 1.38 µM), the “MIC Clostridium difficile” value (Clostridium difficile) was 4 µg/mL (≈ 2.76 µM) and the “concentration which would kill adherent bacteria” value [4] was 8 µg/mL. The MIC (Prevotella intermedia; Prevotella intermedia, read-out: MIC Prevotella intermedia) was over 16 µg/mL, the MIC (Bacteroides fragilis; Bacteroides fragilis, read-out: MIC Bacteroides fragilis) was over 16 µg/mL and the MIC (Porphyromonas gingivalis; Porphyromonas gingivalis, read-out: MIC Porphyromonas gingivalis) was 8 µg/mL (≈ 5.52 µM). The MIC ([5]; Porphyromonas asaccharolytica, read-out: MIC Porphyromonas asaccharolytica) was 2 µg/mL (≈ 1.38 µM), the “Broth MIC +50% Sheep serum” value [6] was 1 µg/mL and the “Broth MIC Normal MH broth” value [6] was 1 µg/mL. For the same compound, the MIC (P. acnes; Cutibacterium acnes, read-out: MIC P. acnes, single isolates, anaerobic agar dilution) was 0.5 µg/mL (≈ 0.345 µM), the “MIC P. acnes” value (P. acnes) was 1 µg/mL (≈ 0.69 µM) and the MIC (Clostridium perfringens; Clostridium perfringens, read-out: MIC Clostridium perfringens) was 0.5 µg/mL (≈ 0.345 µM). The MIC (Fusobacterium varium) was over 16 µg/mL, the MIC (MRSE 879; Staphylococcus epidermidis, MRSE, read-out: broth MIC) was 1 µg/mL (≈ 0.69 µM) and the MIC ([7]; Anaerococcus tetradius, read-out: MIC Peptostreptococcus tetradius) was 1 µg/mL (≈ 0.69 µM). It also gave an MIC50 (G +ve bacteria) of 0.5 µg/mL (≈ 0.345 µM), an MIC90 (G +ve bacteria) of 16 µg/mL (≈ 11 µM) and an MIC [8] of over 16 µg/mL. It also gave an MIC (Ent. faecalis ATCC 29212; Enterococcus faecalis, ATCC29212, read-out: MIC E. faecalis 29212) of 4 µg/mL (≈ 2.76 µM), an MIC50 (S. aureus) of 1 µg/mL (≈ 0.69 µM) and an MIC90 (S. aureus) of 1 µg/mL (≈ 0.69 µM). It also gave an MIC (MRSA 562 [9]) of 0.5 µg/mL (≈ 0.345 µM), an MIC (MRSA 562 [9]; read-out: MIC MRSA 562) of 0.5 µg/mL (≈ 0.345 µM) and an MIC (Fusobacterium montiferum; Fusobacterium, read-out: MIC Fusobacterium montiferum) of over 16 µg/mL. For the same compound, the MIC (S. pneum AB 34; Streptococcus pneumoniae, AB34, read-out: MIC S. pneum AB 34) was 0.25 µg/mL (≈ 0.173 µM), the MIC ([10]; Peptostreptococcus, read-out: MIC Peptostreptococcus magnum, single isolates, anaerobic agar dilution) was 0.5 µg/mL (≈ 0.345 µM) and the “MIC Peptostreptococcus magnum” value [10, 17] was 0.25 µg/mL (≈ 0.173 µM). It also gave an MIC50 (E. faecalis) of 16 µg/mL (≈ 11 µM), an MIC90 (E. faecalis) of 16 µg/mL (≈ 11 µM) and an MIC (VRE 6A (Ent. faecium 6A); Enterococcus, VRE, read-out: MIC VRE 6A) of over 16 µg/mL. The MIC (Clostridium camis; Clostridium, read-out: MIC Clostridium camis) was 2 µg/mL (≈ 1.38 µM), the MIC (Strep. pyog. ATCC 19615; Streptococcus pyogenes, ATCC19615, read-out: MIC S. pyogenes 19615) was 0.5 µg/mL (≈ 0.345 µM) and the MIC (Fusobacterium necrogenes; Fusobacterium necrogenes, read-out: MIC Fusobacterium necrogenes) was over 16 µg/mL. For the same compound, the MIC [11] was 0.125 µg/mL (≈ 0.0863 µM), the MIC (Prevotella bivia; Prevotella bivia, read-out: MIC Prevotella bivia) was over 16 µg/mL and the “Agar MIC” value [12] was 1 µg/mL.

In the case of CC(=O)NC[C@H]1CN(c2ccc(N3CCN(Cc4ccc([N+](=O)[O-])o4)CC3)c(F)c2)C(=O)O1.Cl [Compound No. 16], the “MIC Peptostreptococcus asaccharolyticus” value [13] is reported as “<=.008 μg/ml”, the “MIC MRSA 33” value (MRSA 33; agar incorporation) is reported as 4 µg/mL and the “MIC MRSA 15187” value (MRSA 15187; agar incorporation) is reported as 4 µg/mL. The “MIC S. pneum 6303” value (Strep. pne. ATCC 6303; agar incorporation) was 1 µg/mL, the “Geometric Mean” value (anaerobic bacteria; anaerobes) was 0.037 µg/mL and the “MIC Range” value (anaerobic bacteria; anaerobes) was 0.004 to 1 µg/mL. The MIC50 (anaerobic bacteria; [18]) was 0.032 µg/mL, the MIC90 (anaerobic bacteria; [18]) was 0.25 µg/mL and the “MIC Eubacterium leutum” value (Eubacterium leutum; [17]) was “<=.008 μg/ml”. The “MIC Clostridium difficile” value (Clostridium difficile) was 0.03 µg/mL, the “concentration which would kill adherent bacteria” value [4] was 2 µg/mL and the “Formation of biofilm inhibition” value [14] was “occurs at lower a concentration”. The “MIC Prevotella intermedia” value (Prevotella intermedia; [17]) was 0.016 µg/mL, the “MIC Bacteroides fragilis” value (Bacteroides fragilis; [17]) was 0.03 µg/mL and 0.06 µg/mL and the “MIC Porphyromonas gingivalis” value (Porphyromonas gingivalis; [19]) was “<=.008 μg/ml”. For the same compound, the “MIC Porphyromonas asaccharolytica” value [5, 19] was “<=.008 μg/ml”, the “Broth MIC +50% Sheep serum” value [6] was 2 µg/mL and the “Broth MIC Normal MH broth” value [6] was 2 µg/mL. For the same compound, the “MIC P. acnes” value (P. acnes) was 1 µg/mL, the “MIC Clostridium perfringens” value (Clostridium perfringens; [17]) was 0.03 µg/mL and the “broth MIC” value (MRSE 879; MRSE 879) was 0.5 µg/mL. For the same compound, the “MIC S. aureus 25923” value (S. aureus ATCC 25923) was 2 µg/mL, the MIC50 ([15]; Middlebrook 7H10 agar, 21 days) was 4 µg/mL and the MIC90 ([15]; Middlebrook 7H10 agar, 21 days) was 64 µg/mL. The G.M. ([15]; geometric mean MIC) was 5.44 µg/mL, the “MIC Peptostreptococcus tetradius” value [7, 17] was “<=.008 μg/ml” and the “MIC E. faecalis 29212” value (Ent. faecalis ATCC 29212; agar incorporation) was 2 µg/mL. For the same compound, the “MIC Fusobacterium montiferum” value (Fusobacterium montiferum; [17]) was 0.03 µg/mL, the “MIC S. pneum AB 34” value (S. pneum AB 34; agar incorporation) was 1 µg/mL and the “MIC VRE 6A” value (VRE 6A (Ent. faecium 6A); agar incorporation) was 4 µg/mL. The “MIC Clostridium camis” value (Clostridium camis; [17]) was 0.03 µg/mL and 0.016 µg/mL, the “MIC S. pyogenes 19615” value (Strep. pyog. ATCC 19615; agar incorporation) was 0.5 µg/mL and the MIC50 ([16]; Middlebrook 7H10 agar, 21 days) was 8 µg/mL. The MIC90 ([16]; Middlebrook 7H10 agar, 21 days) was 32 µg/mL, the G.M. ([16]; geometric mean MIC) was 8.52 µg/mL and the “MIC Fusobacterium necrogenes” value (Fusobacterium necrogenes; [19]) was “<=.008 μg/ml”. For the same compound, the “MIC Prevotella bivia” value (Prevotella bivia; [19]) was 0.125 µg/mL and the “Agar MIC” value [12] was 2 µg/mL.
